Measured values reported in ChEMBL document CHEMBL4130368, “Thienopyrimidine derivatives exert their anticancer efficacy via apoptosis induction, oxidative stress and mitotic catastrophe” (Eur J Med Chem, 2017).
The source made the active and inactive calls. No cut-off for these calls is given here.

Key:
[1] = Antiproliferative activity against human GBM10 cells after 72 hrs by MTT assay; assay type: functional, cell-based; settings: GBM10, 72 h
A2780 [2] = experiment: Antiproliferative activity against human A2780 cells after 72 hrs by MTT assay; assay type: functional, cell-based; settings: A2780, 72 h
[3] = Selectivity index, ratio of IC50 for CHO cells to IC50 for human HCT116 cells; assay type: toxicity; settings: Chinese hamster (CHO cells), CHO cells versus HCT116 cells, read-out: Ratio IC50
[4] = Selectivity index, ratio of IC50 for CHO cells to IC50 for human LN229 cells; assay type: toxicity; settings: Chinese hamster (CHO cells), CHO cells versus LN229 cells, read-out: Ratio IC50
[5] = Selectivity index, ratio of IC50 for CHO cells to IC50 for human GBM10 cells; assay type: toxicity; settings: Chinese hamster (CHO cells), CHO cells versus GBM10 cells, read-out: Ratio IC50
HCT-116 [6] = experiment: Inhibition of colony formation in human HCT116 cells at 1 to 2 uM after 24 hrs by crystal violet dye based assay; assay type: functional, cell-based
2008 [7] = experiment: Inhibition of colony formation in human OV2008 cells at 1 to 2 uM after 24 hrs by crystal violet dye based assay; assay type: functional, cell-based
A2780 [8] = experiment: Inhibition of colony formation in human A2780 cells at 1 to 2 uM after 24 hrs by crystal violet dye based assay; assay type: functional, cell-based
HCT-116 [9] = experiment: Cell cycle arrest in human HCT116 cells assessed as accumulation at subG1 phase at 1 uM measured after overnight incubation by propidium iodide staining-based flow cytometry (reference value: 0.154%); assay type: functional
HCT-116 [10] = experiment: Cell cycle arrest in human HCT116 cells assessed as accumulation at G1 phase at 1 uM measured after overnight incubation by propidium iodide staining-based flow cytometry (reference value: 63.5%); assay type: functional
HCT-116 [11] = experiment: Cell cycle arrest in human HCT116 cells assessed as accumulation at […] at 1 uM measured after overnight incubation by propidium iodide staining-based flow cytometry (reference value: 9.70%); assay type: functional
HCT-116 [12] = experiment: Cell cycle arrest in human HCT116 cells assessed as accumulation at G2 phase at 1 uM measured after overnight incubation by propidium iodide staining-based flow cytometry (reference value: 24%); assay type: functional
HCT-116 [13] = experiment: Cell cycle arrest in human HCT116 cells assessed as accumulation at G1 phase at 2 uM measured after overnight incubation by propidium iodide staining-based flow cytometry (reference value: 63.5%); assay type: functional
2008 [14] = experiment: Cell cycle arrest in human OV2008 cells assessed as accumulation at G1 phase at 1 uM measured after overnight incubation by propidium iodide staining-based flow cytometry (reference value: 52.6%); assay type: functional
2008 [15] = experiment: Cell cycle arrest in human OV2008 cells assessed as accumulation at G1 phase at 2 uM measured after overnight incubation by propidium iodide staining-based flow cytometry (reference value: 52.6%); assay type: functional
A2780 [16] = experiment: Cell cycle arrest in human A2780 cells assessed as accumulation at G2 phase at 1 uM measured after overnight incubation by propidium iodide staining-based flow cytometry (reference value: 24.9%); assay type: functional
HCT-116 [17] = experiment: Induction of cellular oxidative stress in human HCT116 cells assessed as increase in ROS levels at 0.5 to 4 uM after 48 hrs by DCFDA dye-based fluorescence microscopic method; assay type: functional, cell-based
2008 [18] = experiment: Induction of cellular oxidative stress in human OV2008 cells assessed as increase in ROS levels at 0.5 to 4 uM after 48 hrs by DCFDA dye-based fluorescence microscopic method; assay type: functional, cell-based
A2780 [19] = experiment: Induction of cellular oxidative stress in human A2780 cells assessed as increase in ROS levels at 0.5 to 4 uM after 48 hrs by DCFDA dye-based fluorescence microscopic method; assay type: functional, cell-based
HCT-116 [20] = experiment: Induction of apoptosis in human HCT116 cells assessed as condensation of nuclei at 0.5 to 2 uM measured after overnight incubation by DAPI-staining based microscopy; assay type: functional, cell-based
2008 [21] = experiment: Induction of apoptosis in human OV2008 cells assessed as condensation of nuclei at 0.5 to 2 uM measured after overnight incubation by DAPI-staining based microscopy; assay type: functional, cell-based
HCT-116 [22] = experiment: Induction of mitotic catastrophe in human HCT116 cells assessed as formation of de-condensed multiple micronuclei at 0.5 to 2 uM measured after overnight incubation by DAPI-staining based microscopy; assay type: functional, cell-based
HCT-116 [23] = experiment: Induction of apoptosis in human HCT116 cells assessed as viable cells at 1 uM measured after overnight incubation by mitotracker red/alexa fluor-488 Annexin V staining-based flow cytometry (reference value: 89%); assay type: functional; settings: read-out: Activity
HCT-116 [24] = experiment: Induction of apoptosis in human HCT116 cells assessed as early apoptotic cells at 1 uM measured after overnight incubation by mitotracker red/alexa fluor-488 Annexin V staining-based flow cytometry (reference value: 8.36%); assay type: functional
HCT-116 [25] = experiment: Induction of apoptosis in human HCT116 cells assessed as necrotic cells at 1 uM measured after overnight incubation by mitotracker red/alexa fluor-488 Annexin V staining-based flow cytometry (reference value: 2.67%); assay type: functional
2008 [26] = experiment: Induction of apoptosis in human OV2008 cells assessed as viable cells at 1 uM measured after overnight incubation by mitotracker red/alexa fluor-488 Annexin V staining-based flow cytometry (reference value: 80.5%); assay type: functional; settings: read-out: Activity
2008 [27] = experiment: Induction of apoptosis in human OV2008 cells assessed as late apoptotic cells at 1 uM measured after overnight incubation by mitotracker red/alexa fluor-488 Annexin V staining-based flow cytometry (reference value: 0.255%); assay type: functional
2008 [28] = experiment: Induction of apoptosis in human OV2008 cells assessed as early apoptotic cells at 2 uM measured after overnight incubation by mitotracker red/alexa fluor-488 Annexin V staining-based flow cytometry (reference value: 12.9%); assay type: functional
A2780 [29] = experiment: Induction of apoptosis in human A2780 cells assessed as early apoptotic cells at 1 uM measured after overnight incubation by mitotracker red/alexa fluor-488 Annexin V staining-based flow cytometry (reference value: 11.9%); assay type: functional
A2780 [30] = experiment: Induction of apoptosis in human A2780 cells assessed as early apoptotic cells at 2 uM measured after overnight incubation by mitotracker red/alexa fluor-488 Annexin V staining-based flow cytometry (reference value: 11.9%); assay type: functional
A2780 [31] = experiment: Induction of apoptosis in human A2780 cells assessed as late apoptotic cells at 2 uM measured after overnight incubation by mitotracker red/alexa fluor-488 Annexin V staining-based flow cytometry (reference value: 0.015%); assay type: functional
HCT-116 [32] = experiment: Antiproliferative activity against bax deficient human HCT116 cells assessed after 72 hrs by MTT assay; assay type: functional, cell-based; settings: HCT-116, 72 h
HCT-116 [33] = experiment: Antiproliferative activity against bak deficient human HCT116 cells after 72 hrs by MTT assay; assay type: functional, cell-based; settings: HCT-116, 72 h
A2780 [34] = experiment: Induction of morphological changes in human A2780 cells at 0.1 to 3 uM after 68 hrs by microscopic method; assay type: functional, cell-based
A2780 [35] = experiment: Induction of apoptosis in human A2780 cells assessed as condensation of nuclei at 0.5 to 2 uM measured after overnight incubation by DAPI-staining based microscopy; assay type: functional, cell-based
A2780 [36] = experiment: Induction of mitotic catastrophe in human A2780 cells assessed as multinuclear changes at 0.5 to 2 uM measured after overnight incubation by DAPI-staining based microscopy; assay type: functional, cell-based

COc1ccc(-c2nc(O)c3c4c(sc3n2)CCCC4)cc1
IC50 [1]: 800 nM | IC50 (A2780 [2]): 1200 nM | selectivity ratio [3]: 17 to 28 | selectivity ratio [4]: 17 to 28 | selectivity ratio [5]: 17 to 28 | inhibition (HCT-116 [6]): Dose-dependent effect | inhibition 2008 [7]: Dose-dependent effect | inhibition (A2780 [8]): Dose-dependent effect | Activity (HCT-116 [9]): 0.087% | Activity (HCT-116 [10]): 37.5% | Activity (HCT-116 [11]): 12.3% | Activity (HCT-116 [12]): 47.1% | Activity (HCT-116 [13]): 29.5% | Activity 2008 [14]: 19.5% | Activity 2008 [15]: 13.6% | Activity (A2780 [16]): 57.8% | Activity (HCT-116 [17]): Active | Activity 2008 [18]: Active | Activity (A2780 [19]): Active | Activity (HCT-116 [20]): Active | Activity 2008 [21]: Active | Activity (HCT-116 [22]): Active | viability at 1 µM (HCT-116 [23]): 87% | Activity (HCT-116 [24]): 11.6% | Activity (HCT-116 [25]): 1.48% | viability at 1 µM 2008 [26]: 75.1% | Activity 2008 [27]: 0.245% | Activity 2008 [28]: 22.2% | Activity (A2780 [29]): 25.8% | Activity (A2780 [30]): 51.2% | Activity (A2780 [31]): 0.051% | IC50 (HCT-116 [32]): 1200 nM | IC50 (HCT-116 [33]): 1400 nM | Activity (A2780 [34]): Active | Activity (A2780 [35]): Active | Activity (A2780 [36]): Active
